Data published in the supplement of paper PMC11451515.

Test system: NOMO1
Experiment: cell viability relative to DMSO control; higher = less cytotoxic
Conditions: 48 h
Outline: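 Viability is expressed as a percentage of DMSO wells within each plate, and cell-free wells serve as background. Seeding densities in the 1536-well plates (5 μl) were 500 cells/well for NOMO1 or SEM leukemia cells and 1000 cells/well for P12-Ichikawa. Each line was adapted for at least four passages in each medium. Library compounds in DMSO were pin-dosed at 47 μM to 0.79 nM (11 points, threefold), and CellTiter-Glo One luminescence was read after 48 h at 37°C.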

[1] = HPLM + 10% dialyzed FBS, 0.000781 µM
[2] = HPLM + 10% dialyzed FBS, 0.00234 µM
[3] = HPLM + 10% dialyzed FBS, 0.00702 µM
[4] = HPLM + 10% dialyzed FBS, 0.0211 µM
[5] = HPLM + 10% dialyzed FBS, 0.0632 µM
[6] = HPLM + 10% dialyzed FBS, 0.19 µM
[7] = HPLM + 10% dialyzed FBS, 0.569 µM
[8] = HPLM + 10% dialyzed FBS, 1.71 µM
[9] = HPLM + 10% dialyzed FBS, 5.12 µM
[10] = HPLM + 10% dialyzed FBS, 15.4 µM
[11] = HPLM + 10% dialyzed FBS, 46.1 µM
[12] = RPMI 5 mM glucose + 10% FBS, 0.000781 µM
[13] = RPMI 5 mM glucose + 10% FBS, 0.00234 µM
[14] = RPMI 5 mM glucose + 10% FBS, 0.00702 µM
[15] = RPMI 5 mM glucose + 10% FBS, 0.0211 µM
[16] = RPMI 5 mM glucose + 10% FBS, 0.0632 µM
[17] = RPMI 5 mM glucose + 10% FBS, 0.19 µM
[18] = RPMI 5 mM glucose + 10% FBS, 0.569 µM
[19] = RPMI 5 mM glucose + 10% FBS, 1.71 µM
[20] = RPMI 5 mM glucose + 10% FBS, 5.12 µM
[21] = RPMI 5 mM glucose + 10% FBS, 15.4 µM
[22] = RPMI 5 mM glucose + 10% FBS, 46.1 µM
[23] = RPMI 5 mM glucose + 10% dialyzed FBS, 0.000781 µM
[24] = RPMI 5 mM glucose + 10% dialyzed FBS, 0.00234 µM
[25] = RPMI 5 mM glucose + 10% dialyzed FBS, 0.00702 µM
[26] = RPMI 5 mM glucose + 10% dialyzed FBS, 0.0211 µM
[27] = RPMI 5 mM glucose + 10% dialyzed FBS, 0.0632 µM
[28] = RPMI 5 mM glucose + 10% dialyzed FBS, 0.19 µM
[29] = RPMI 5 mM glucose + 10% dialyzed FBS, 0.569 µM
[30] = RPMI 5 mM glucose + 10% dialyzed FBS, 1.71 µM
[31] = RPMI 5 mM glucose + 10% dialyzed FBS, 5.12 µM
[32] = RPMI 5 mM glucose + 10% dialyzed FBS, 15.4 µM
[33] = RPMI 5 mM glucose + 10% dialyzed FBS, 46.1 µM

SMILES	cell viability [1]	cell viability [2]	cell viability [3]	cell viability [4]	cell viability [5]	cell viability [6]	cell viability [7]	cell viability [8]	cell viability [9]	cell viability [10]	cell viability [11]	cell viability [12]	cell viability [13]	cell viability [14]	cell viability [15]	cell viability [16]	cell viability [17]	cell viability [18]	cell viability [19]	cell viability [20]	cell viability [21]	cell viability [22]	cell viability [23]	cell viability [24]	cell viability [25]	cell viability [26]	cell viability [27]	cell viability [28]	cell viability [29]	cell viability [30]	cell viability [31]	cell viability [32]	cell viability [33]
Cn1cnc([N+](=O)[O-])c1Sc1ncnc2nc[nH]c12	79.8%	79.6%	107%	99.1%	109%	93.9%	114%	89.9%	6.49%	6.93%	7.54%	79.6%	87.5%	91.3%	96.6%	85.1%	95.6%	82.8%	73.1%	57.4%	6.27%	5.14%	88.9%	96.7%	93.3%	90%	98.6%	92.2%	90%	77.9%	48.6%	6.5%	6.03%
CC(C)Cn1cnc2c(N)nc3ccccc3c21	120%	124%	120%	116%	118%	121%	117%	112%	94.5%	102%	89.4%	98.9%	110%	116%	109%	114%	103%	108%	103%	108%	95.3%	105%	112%	107%	102%	128%	109%	110%	115%	103%	96%	98.8%	100%
CCCCCCCCCCCC/1=C(O)/C(=O)/C=C(O)\C1=O	112%	116%	142%	127%	154%	151%	51.1%	39.4%	40.9%	35.5%	28.6%																						
OC[C@H]1OC(OC2=CC3=C(C(=C2)O)C(=O)\C(=C/O3)C4=CC=C(O)C=C4)[C@H](O)[C@@H](O)[C@@H]1O (some centres not stated)	94%	86.6%	79.6%	92.8%	89.9%	89.2%	72%	61.9%	88.9%	72%	74.2%	78.9%	92.5%	85.9%	77.8%	92%	90.7%	87.9%	84.7%	84.1%	86.3%	72%	88.5%	73.9%	78.6%	78.5%	80.8%	73.4%	80.4%	82.8%	76.7%	77.8%	66.7%
CC1=C(/C=C/C(C)=C/C=C/C(C)=C/C(=O)O)C(C)(C)CCC1	106%	106%	144%	126%	114%	127%	110%	104%	98%	84.3%	80.3%	128%	124%	114%	111%	118%	122%	128%	110%	94%	99.1%	68.4%											
